Test results taken from publication PMC4750079, “Tackling amyloidogenesis in Alzheimer’s disease with A2V variants of Amyloid-β” (Scientific Reports, 2016).
Where a SMILES comes first, the peptide text is derived from it. [ ]: non-standard residue; d: D form.

How the values were obtained:
Aβ1-42WT [1] = molecular target: T1, Aβ1-42WT (Homo sapiens, UniProt P05067); assay: CD spectroscopy of Aβ1-42WT secondary structure; assay type: biochemical; details: data not shown
T1 construct: Aβ1-42WT oligomers were formed following incubation of Aβ1-42WT at a final concentration of 100 μM; made in house; host or cells: chemical synthesis (solid-phase Fmoc), no expression host
T1 sequence (P05067 672-713 limits assumed): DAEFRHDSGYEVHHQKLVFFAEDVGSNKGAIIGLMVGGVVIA

proteinase K = proteinase K (Parengyodontium album, UniProt P06873); details: peptide 1 µg/µl, 10 ng/µl proteinase K, 24 h, 25 °C and 37 °C, MALDI TOF MS; small fraction cleaved at Gly 11
proteinase K, sequence (P06873 106-384, species assumed): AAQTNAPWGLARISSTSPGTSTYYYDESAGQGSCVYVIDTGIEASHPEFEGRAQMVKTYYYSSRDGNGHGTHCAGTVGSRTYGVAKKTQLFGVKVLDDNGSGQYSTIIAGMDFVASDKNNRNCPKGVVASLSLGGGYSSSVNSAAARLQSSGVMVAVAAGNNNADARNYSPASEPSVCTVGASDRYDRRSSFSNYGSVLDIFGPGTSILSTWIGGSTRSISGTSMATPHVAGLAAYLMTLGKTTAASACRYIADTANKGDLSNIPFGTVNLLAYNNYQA
Protocol: (§1) The stability of Aβ1-6A2VTAT(D) peptide to protease digestion was also investigated. To this end, the peptide (1µg/µl) was incubated at 37 °C with 10 ng/µl of proteinase K and in the presence of OP50 E. coli. […] Samples were potted on a metallic plate (MTP 384 Ground Steel, Bruker) before and 24 h after incubation at 25 °C and 37 °C, and analyzed by MALDI TOF mass spectrometry (MS).

OP50 E. coli = details: peptide 1 µg/µl, 24 h, 25 °C and 37 °C, MALDI TOF MS, small fraction cleaved at Gly 11
Protocol: as §1

APPswe/PS1dE9 mice = assay: Serum IgG against Aβ peptides after chronic treatment (ELISA); assay type: in vivo, mouse; details: once a week for 5 months, n = 9
Protocol: Figure 8 Serum levels of IgG against Aβ peptides after chronic treatment with Aβ1-6A2VTAT(D). To verify whether Aβ1-6A2VTAT(D) administration once a week for 5 months was associated with an immune response, we collected blood from mice before (T0) and at the end of the treatment (T2). Sera from saline (n = 8) and Aβ1-6A2VTAT(D) (n = 9) treated mice were tested induplicate using ELISA for the presence of IgG against Aβ1-6A2VTAT(D) (A), the full-length Aβ1-42 (B), Aβ1-6A2V (C) and TAT(D) (D).
Sera were collected from mice before (T0) and at the end of the treatment (5 months), and tested using ELISA for the presence of IgG against Aβ1-6A2VTAT(D), the full-length Aβ1-42, Aβ1-6A2V(D) and TAT(D) following previously described protocols for antigen-specific mouse IgG detection, except blocking buffer that was PBS 3% milk. Anti-Aβ1-42 IgG antibodies from 6E10 IgG clone (Covance), and sera from mice immunized with Aβ1-6A2VTAT(D) or with Aβ1-6A2V emulsified in Complete Freund’s adjuvant were used as positive controls.

SH-SY5Y cells = assay: Toxicity of peptides on differentiated SH-SY5Y cells (MTT test); assay type: cell-based, human; details: 24 h
Protocol: Figure 2 Analysis of the effects of Aβ1-6WT(D), Aβ1-6A2V(D) and Aβ1-6A2VTAT(D) on neurotoxicity in cell models. SH-SY5Y cells were differentiated with 10 μM retinoic acid. […] Comparison of cell viability was performed by Student t-test.
Toxicity studies with Aβ1-6WT(D), Aβ1-6A2V(D) or Aβ1-6A2VTAT(D) and the short peptides’ ability to inhibit the toxicity induced by Aβ1-42WT in SH-SY5Y cell cultures were analyzed following previously described protocols. Each experiment was performed in triplicate; the data provided were obtained as the mean of three independent assays.

Aβ1-42WT [2] = molecular target: T1, Aβ1-42WT; assay: Atomic force microscopy of Aβ1-42WT oligomerization; assay type: biochemical; details: Aβ1-42WT 100 μM co-incubated with peptide 1:4, pH 7.4, 4 °C, 24 h, AFM
Protocol: In polarized-light and EM studies, both peptides were used at 0.125 mM, molar ratio = 1:1 or 1:4 respectively, with 20 days incubation. […] E,F: Representative Tapping mode of AFM images as determined by amplitude error data of Aβ1-42WT oligomers. Aβ1-42WT peptide 100 μM in phosphate buffer 50 mM, pH 7.4 was incubated at 4 °C for 24 h alone (E) (Z range: -10/ + 10 mV) or in presence of Aβ1-6A2VTAT(D) (F) (Z range: -10/ + 25 mV). The molar ratio of Aβ1-42WT to Aβ1-6A2VTAT(D) was 1:4. Scale bar: 1 μm, inset: 200 nm. (G,H): height plot profiles obtained along different lines traced on the topographic AFM images.
Aβ1-42WT oligomers were formed following incubation of Aβ1-42WT at a final concentration of 100 μM in phosphate buffer 50 mM, pH 7.4 at 4 °C for 24 h, alone or in presence of Aβ1-6A2VTAT(D), at 1:4 molar ratio. Sample solutions were diluted to a final concentration of 10 μM of Aβ1-42WT with phosphate buffer and 50 μl of each solution was immediately added onto freshly cleaved mica at room temperature for 2 minutes. Samples were washed and dried under gentle nitrogen flow. AFM analyses were carried out on a Multimode AFM with a Nanoscope V system (Veeco/Digital Instruments). AFM images were analysed using the Scanning Probe Image Processor data analysis package. All the topographic patterns and SPIP characterization were verified via additional measurements on a minimum of five different, well separated areas.

CC(C)[C@@H](NC(=O)[C@H](N)CC(=O)O)C(=O)N[C@H](CCC(=O)O)C(=O)N[C@H](Cc1ccccc1)C(=O)N[C@H](CCCNC(=N)N)C(=O)N[C@H](Cc1c[nH]cn1)C(=O)NCC(=O)NCC(=O)NCC(=O)NCC(=O)NCC(=O)N[C@H](CCCNC(=N)N)C(=O)N[C@H](CCCCN)C(=O)N[C@H](CCCCN)C(=O)N[C@H](CCCNC(=N)N)C(=O)N[C@H](CCCNC(=N)N)C(=O)N[C@H](CCC(N)=O)C(=O)N[C@H](CCCNC(=N)N)C(=O)N[C@H](CCCNC(=N)N)C(=O)N[C@H](CCCNC(=N)N)C(=O)O [Aβ1-6A2VTAT(D)] (H-[dD][dV][dE][dF][dR][dH]GGGGG[dR][dK][dK][dR][dR][dQ][dR][dR][dR]-OH; N-terminus assumed)
acquisition of β-sheet conformation by Aβ1-42WT (Aβ1-42WT [1]): inhibits the acquisition of β-sheet conformation by Aβ1-42WT | resistance to digestion with proteinase K (proteinase K): largely resistant | resistance to digestion with bacteria proteases (OP50 E. coli): largely resistant | serum IgG against Aβ1-6A2V peptide (APPswe/PS1dE9 mice): did not induce production of IgG | serum IgG against Aβ1-6A2VTAT(D) (APPswe/PS1dE9 mice): not negligible levels | serum IgG against TAT(D) (APPswe/PS1dE9 mice): 3 out of 9 mice displayed slightly increased levels | serum IgG against full-length Aβ (APPswe/PS1dE9 mice): not negligible levels | toxicity at concentrations between 1 and 5 μM (SH-SY5Y cells; 1 to 5 μM): not toxic | toxicity at concentrations higher than 5 μM (SH-SY5Y cells; higher concentrations): reduces cell viability at higher concentrations | diameter of very small globular structures (~70%) (Aβ1-42WT [2]): 5-8 nm | oligomeric structures of Aβ1-42WT detected (Aβ1-42WT [2]): only rare oligomeric structures were detected
